Measurements from patent US20120022261A1, “Colorant Compositions Containing an Oxonol Dye” (priority 2005, published 2012).

Experiments:
[1] = 50° C. test (storage at 50° C. over 18 hours in a hot-air cabinet); assay type: physicochemical; design: key: A positive test result indicates that the product still exists in a solid and powdery state after the heat treatment; If the product undergoes a sintering process and/or starts to melt at this temperature, the test result is classified as negative; details: solid product stored at 50° C. for 18 hours in a hot-air cabinet
Experimental: The 50° C. test involves storing the product to be tested at 50° C. over a period of 18 hours in a hot-air cabinet. […] If the product undergoes a sintering process and/or starts to melt at this temperature, the test result is classified as negative.

[2] = Solubility in organic solvents (EtOH, MEK); assay type: physicochemical; details: for Solubility (g/l) EtOH: solvent EtOH; for Solubility (g/l) MEK: solvent MEK (methylethyl ketone)

| Structure (SMILES) | 50° C. Test [1] | Solubility (g/l) EtOH [2] [g/L] | Solubility (g/l) MEK [2] [g/L] |
| --- | --- | --- | --- |
| CC1=C(C#N)C(=O)N(C(C)C)C(=O)C1=CC=Cc1c(C)c(C#N)c(=O)n(C(C)C)c1[O-].CCCC[N+](CCCC)(CCCC)CCCC [i-propyl, i-propyl, tetrabutyl-ammonium] | positive |  |  |
| CC1=C(C#N)C(=O)N(CCCOC(C)C)C(=O)C1=CC=Cc1c(C)c(C#N)c(=O)n(C)c1[O-].CCCC[N+](CCCC)(CCCC)CCCC [reference compound] | negative | 21.3 | 28.5 |
| CCCC[N+](CCCC)(CCCC)CCCC.CCCN1C(=O)C(=CC=Cc2c(C)c(C#N)c(=O)n(CCC)c2[O-])C(C)=C(C#N)C1=O [n-propyl, n-propyl, tetrabutyl-ammonium] | positive | 14 | 69 |
| CC1=C(C#N)C(=O)N(CC(C)C)C(=O)C1=CC=Cc1c(C)c(C#N)c(=O)n(CC(C)C)c1[O-].CCCC[N+](CCCC)(CCCC)CCCC | positive | 4 | 56.2 |
| CCCCCN1C(=O)C(=CC=Cc2c(C)c(C#N)c(=O)n(CCCCC)c2[O-])C(C)=C(C#N)C1=O.CCCC[N+](CCCC)(CCCC)CCCC [n-pentyl, n-pentyl, tetrabutyl-ammonium] | positive | 50 | 380 |
| CCCC[N+](CCCC)(CCCC)CCCC.CCCCn1c([O-])c(C=CC=C2C(=O)N(CCCOC(C)C)C(=O)C(C#N)=C2C)c(C)c(C#N)c1=O [reference compound] | negative | 197 | 339 |
| CCCC[N+](CCCC)(CCCC)CCCC.CCn1c([O-])c(C=CC=C2C(=O)N(CCCOC(C)C)C(=O)C(C#N)=C2C)c(C)c(C#N)c1=O [reference compound] | negative | 146 | 231 |
| CCCC[N+](CCCC)(CCCC)CCCC.CCCCn1c([O-])c(C=CC=C2C(=O)N(CC)C(=O)C(C#N)=C2C)c(C)c(C#N)c1=O [ethyl, n-butyl, tetrabutyl-ammonium] | positive | 14.3 | 41.4 |
| CCCC[N+](CCCC)(CCCC)CCCC.CCN1C(=O)C(=CC=Cc2c(C)c(C#N)c(=O)n(CC)c2[O-])C(C)=C(C#N)C1=O [ethyl, ethyl, tetrabutyl-ammonium] | positive | 5.6 | 63.2 |
| CCCCC[N+](CCCCC)(CCCCC)CCCCC.CCn1c([O-])c(C=CC=C2C(=O)N(CCCOC(C)C)C(=O)C(C#N)=C2C)c(C)c(C#N)c1=O [reference compound] | negative | 45 | 32 |
| CCCC[N+](CCCC)(CCCC)CCCC.COCCN1C(=O)C(=CC=Cc2c(C)c(C#N)c(=O)n(CCOC)c2[O-])C(C)=C(C#N)C1=O [reference compound] | negative |  |  |
| CCCCN1C(=O)C(=CC=Cc2c(C)c(C#N)c(=O)n(CCCC)c2[O-])C(C)=C(C#N)C1=O.CCCC[N+](CCCC)(CCCC)CCCC [n-butyl, n-butyl, tetrabutyl-ammonium] | positive | 35.5 | 98 |
